Experimental data from patent US20180087027A1, “METHOD FOR […] OF HUMAN MESENCHYMAL STEM CELLS” (SEOUL NATIONAL UNIVERSITY HOSPITAL, priority 2015, published 2018).

Key:
Type in all cases: cell-based
[1] = test system: human MSCs; assay: G-banding karyotype analysis of chromosomal stability in human MSCs treated with ET-1; conditions: human MSCs treated with ET-1 as in Example 2, FIG. 4
Procedure: For this purpose, the G-banding karyotype analysis method known as a basic test method for evaluating genomic stability was performed. The G-banding karyotype analysis method is a method of pre-treating stem cells with trypsin, which is a proteolytic enzyme, and staining chromosomes with a Giemsa stain. In this case, euchromatin is stained with a light color, and heterochromatin is stained with a dark color. The G-banding karyotype analysis method is the test method most often used for chromosomal analysis because many staining bands are generated.

[2] = test system: human MSCs; assay: Real time gDNA PCR comparing length of telomeres in human MSCs treated with ET-1; conditions: 0.025 μg/mL ET-1, medium replaced after 24 hours, gDNA collected after 3 days; FIG. 3
Procedure: To check a change in a length of telomeres in human MSCs when the human MSCs were treated or were not treated with ET-1, the human MSCs were prepared so that the cells reached a confluency of 60% on a 60 mm plate. Before the human MSCs were treated with ET-1, a culture broth was replaced with a fresh culture broth. Thereafter, the human MSCs were treated with 0.025 μg/mL of ET-1, and the medium was replaced with a fresh culture broth after 24 hours. After 3 days, gDNA samples were collected. Then, real time gDNA PCR was performed using the samples to compare the lengths of the telomeres by means of ET-1 treatment.

[3] = test system: Oct4 protein in human MSCs; assay: Western blotting of Oct4 protein expression in human MSCs treated with ET-1
Procedure: To determine a level of expression of an Oct4 protein in human MSCs when the human MSCs were treated with ET-1, human MSCs purchased from Lonza were treated with an increasing concentration (0, 0.0125, 0.025, 0.125, and 0.25 μg/mL) of ET-1, and a level of protein expression was determined through western blotting.

[4] = test system: Oct4 mRNA in human MSCs; assay: Real time PCR of Oct4 mRNA expression in human MSCs treated with ET-1; conditions: RNA extracted 24 hours after ET-1 treatment, FIG. 2
Procedure: To compare levels of mRNA expression of Oct4 in human MSCs treated with ET-1, the human MSCs were treated with ET-1, and RNA was extracted therefrom after 24 hours to synthesize complementary cDNA. Thereafter, real time PCR was performed using the complementary cDNA as a template and Oct4 amplification primers set forth in the following SEQ ID NOs: 1 and 2.
SEQ ID NO: 1: 5′-gaggcaacct ggagaatttg-3′ (Oct4 forward primer)
SEQ ID NO: 2: 5′-tagcctgggg taccaaaatg-3′ (Oct4 reverse primer)

endothelin-1 [ET-1]
chromosomal stability (chromosomal dysfunction) [1]: chromosomal dysfunction was not induced
lengths of the telomeres versus MSCs not treated with ET-1 [2]: extended approximately three-fold or more
level of protein expression of Oct4 across the tested ET-1 concentrations ([3]; ET-1 at a concentration of 0.025 μg/mL, FIG. 1): highest level of protein expression
level of protein expression of the stemness marker Oct4 ([3]; human MSCs (Lonza) treated with 0, 0.0125, 0.025, 0.125 and 0.25 μg/mL ET-1, FIG. 1): significantly increased
mRNA expression of Oct4 [4]: increased
